Measured values published in ChEMBL document CHEMBL3885881, “DrugMatrix”.

Species: Rattus norvegicus
Type: toxicity, organism-based, Sprague-Dawley
Conditions: in vivo, po, 24 h, route oral GAVAGE, time 1 day, […]; for ABSOLUTE BASOPHIL / ABSOLUTE EOSINOPHIL / ABSOLUTE LYMPHOCYTE / ABSOLUTE MONOCYTE / BASOPHIL / EOSINOPHIL / ERYTHROCYTE COUNT / HEMATOCRIT / HEMOGLOBIN / LEUKOCYTE COUNT / LYMPHOCYTE / MEAN CORPUSCULAR HEMOGLOBIN / MEAN CORPUSCULAR HEMOGLOBIN CONCENTRATION / MEAN CORPUSCULAR VOLUME / MONOCYTE / NEUTROPHIL / PLATELET COUNT: tissue Blood; for ALANINE AMINOTRANSFERASE / ALBUMIN / ALKALINE PHOSPHATASE / ASPARTATE AMINOTRANSFERASE / BLOOD UREA NITROGEN / CARBON DIOXIDE / CHLORIDE / CHOLESTEROL / CREATINE PHOSPHOKINASE / CREATININE / GLUCOSE / LACTATE DEHYDROGENASE / LIPASE / PHOSPHORUS / POTASSIUM / SODIUM / TOTAL BILIRUBIN / TOTAL PROTEIN / URIC ACID: tissue Plasma
[1] = 0 mg/kg, vehicle control, dose level Control

Description: DrugMatrix - Regimen: Single

CC(CCc1ccc(O)cc1)NCCc1ccc(O)c(O)c1 (configuration not stated) [DOBUTAMINE]
ABSOLUTE BASOPHIL [1]: 46.7 cells/µL | ABSOLUTE EOSINOPHIL [1]: 130 cells/µL | ABSOLUTE LYMPHOCYTE [1]: 8720 cells/µL | ABSOLUTE MONOCYTE [1]: 140 cells/µL | BASOPHIL [1]: 0.43% | EOSINOPHIL [1]: 1.33% | ERYTHROCYTE COUNT [1]: 6.45 x10E6/uL | HEMATOCRIT [1]: 42.2% | HEMOGLOBIN [1]: 13.33 G/DL | LEUKOCYTE COUNT [1]: 10.59 x10E3/uL | LYMPHOCYTE [1]: 82.13% | MEAN CORPUSCULAR HEMOGLOBIN [1]: 20.67 pg | MEAN CORPUSCULAR HEMOGLOBIN CONCENTRATION [1]: 31.6 G/DL | MEAN CORPUSCULAR VOLUME [1]: 65.4 fL | MONOCYTE [1]: 1.37% | NEUTROPHIL [1]: 14.3% | PLATELET COUNT [1]: 1048.67 x10E3/uL | ALANINE AMINOTRANSFERASE [1]: 44 u/L | ALBUMIN [1]: 3.93 G/DL | ALKALINE PHOSPHATASE [1]: 551.33 u/L | ASPARTATE AMINOTRANSFERASE [1]: 97 u/L | BLOOD UREA NITROGEN [1]: 13.5 mg/dL | CARBON DIOXIDE [1]: 37.33 mmol/L | CHLORIDE [1]: 102.33 MEQ/L | CHOLESTEROL [1]: 83 mg/dL | CREATINE PHOSPHOKINASE [1]: 365.33 u/L | CREATININE [1]: 0.4 mg/dL | GLUCOSE [1]: 189 mg/dL | LACTATE DEHYDROGENASE [1]: 170.33 u/L | LIPASE [1]: 10.67 u/L | PHOSPHORUS [1]: 11.53 mg/dL | POTASSIUM [1]: 5.63 MEQ/L | SODIUM [1]: 144.33 MEQ/L | TOTAL BILIRUBIN [1]: 0.4 mg/dL | TOTAL PROTEIN [1]: 6.27 G/DL | URIC ACID [1]: 0.87 mg/dL | ABSOLUTE BASOPHIL (15 mg/kg, dose level High): 16.7 cells/µL | ABSOLUTE EOSINOPHIL (15 mg/kg, dose level High): 56.7 cells/µL | ABSOLUTE LYMPHOCYTE (15 mg/kg, dose level High): 5150 cells/µL | ABSOLUTE MONOCYTE (15 mg/kg, dose level High): 130 cells/µL | BASOPHIL (15 mg/kg, dose level High): 0.23% | EOSINOPHIL (15 mg/kg, dose level High): 1% | ERYTHROCYTE COUNT (15 mg/kg, dose level High): 6.18 x10E6/uL | HEMATOCRIT (15 mg/kg, dose level High): 41.87% | HEMOGLOBIN (15 mg/kg, dose level High): 13.57 G/DL | LEUKOCYTE COUNT (15 mg/kg, dose level High): 6.42 x10E3/uL | LYMPHOCYTE (15 mg/kg, dose level High): 79.73% | MEAN CORPUSCULAR HEMOGLOBIN (15 mg/kg, dose level High): 21.9 pg | MEAN CORPUSCULAR HEMOGLOBIN CONCENTRATION (15 mg/kg, dose level High): 32.3 G/DL | MEAN CORPUSCULAR VOLUME (15 mg/kg, dose level High): 67.7 fL | MONOCYTE (15 mg/kg, dose level High): 2.1% | NEUTROPHIL (15 mg/kg, dose level High): 16.6% | PLATELET COUNT (15 mg/kg, dose level High): 1219 x10E3/uL | ALANINE AMINOTRANSFERASE (15 mg/kg, dose level High): 48 u/L | ALBUMIN (15 mg/kg, dose level High): 3.87 G/DL | ALKALINE PHOSPHATASE (15 mg/kg, dose level High): 483.33 u/L | ASPARTATE AMINOTRANSFERASE (15 mg/kg, dose level High): 106 u/L | BLOOD UREA NITROGEN (15 mg/kg, dose level High): 13.67 mg/dL | CARBON DIOXIDE (15 mg/kg, dose level High): 36.33 mmol/L | CHLORIDE (15 mg/kg, dose level High): 105 MEQ/L | CHOLESTEROL (15 mg/kg, dose level High): 67.33 mg/dL | CREATINE PHOSPHOKINASE (15 mg/kg, dose level High): 728.67 u/L | CREATININE (15 mg/kg, dose level High): 0.5 mg/dL | GLUCOSE (15 mg/kg, dose level High): 182.33 mg/dL | LACTATE DEHYDROGENASE (15 mg/kg, dose level High): 183.67 u/L | LIPASE (15 mg/kg, dose level High): 13.67 u/L | PHOSPHORUS (15 mg/kg, dose level High): 12.43 mg/dL | POTASSIUM (15 mg/kg, dose level High): 5.77 MEQ/L | SODIUM (15 mg/kg, dose level High): 145 MEQ/L | TOTAL BILIRUBIN (15 mg/kg, dose level High): 0.33 mg/dL | TOTAL PROTEIN (15 mg/kg, dose level High): 6.17 G/DL | URIC ACID (15 mg/kg, dose level High): 1.47 mg/dL
